For one test, the target named is T1, LATS2 (Homo sapiens, UniProt Q9NRM7).
T1 construct: purchased Carna Biosciences
T1 sequence (Q9NRM7 553-1088 limits assumed): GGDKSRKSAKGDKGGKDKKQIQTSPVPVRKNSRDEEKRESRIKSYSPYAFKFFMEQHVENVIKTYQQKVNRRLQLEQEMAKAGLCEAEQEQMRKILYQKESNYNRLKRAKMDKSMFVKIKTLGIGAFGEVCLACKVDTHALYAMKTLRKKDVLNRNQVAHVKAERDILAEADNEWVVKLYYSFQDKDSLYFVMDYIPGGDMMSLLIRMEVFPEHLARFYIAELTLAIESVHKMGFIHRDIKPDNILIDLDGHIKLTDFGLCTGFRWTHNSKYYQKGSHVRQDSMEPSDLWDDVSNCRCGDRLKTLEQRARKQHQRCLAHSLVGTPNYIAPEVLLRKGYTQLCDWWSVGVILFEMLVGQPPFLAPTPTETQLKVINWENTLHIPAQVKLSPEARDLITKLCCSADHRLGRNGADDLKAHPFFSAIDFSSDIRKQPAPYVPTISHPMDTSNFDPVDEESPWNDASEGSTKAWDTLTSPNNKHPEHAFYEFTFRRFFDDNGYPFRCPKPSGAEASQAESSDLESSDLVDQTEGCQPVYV
In words: Kinase Assay method (Fluorospark Kinase/ADP Multi-Assay Kit). The test is classed as biochemical. The procedure: (§1) For compound k-1:B-1 (racemate), GA-002A, GA-002B, GA-005A and GA-005B, inhibitory activity evaluation (calculation of IC50) was performed on LATS1 and LATS2 (manufactured by Carna Biosciences). The activity was measured using the Kinase Assay method described below. The compounds were added such that the test concentration of k-1:B-1 (racemate), GA-002A, GA-002B, GA-005A and GA-005B was in 8 steps (10 μM, 1 μM, 100 nM, […], 10 nM, 3 nM, 1 nM, 0.3 nM) from the final concentration of 10 μM to 0.3 nM.
(§2) As the analysis method of the data, the mean signal of the control well containing reaction components other than the evaluation compound was set to 0% inhibition, the mean signal without enzyme addition was set to 100% inhibition, and the inhibition rate was calculated from the mean signal of 2 wells of each test substance test. IC50 value was calculated using EXSUS (version 7.1.6, manufactured by CAC EXICARE Corporation).
(§3) 2 μL of a compound of the present invention solution at 2.5-fold concentration, 1 μL of substrate at 5-fold concentration (SGKtide: NH2—CKKRNRRLSVA-COOH, manufactured by SignalChem), ATP (manufactured by Sigma-Aldrich), MgCl2 (manufactured by FUJIFILM Wako Pure Chemical Corporation) solution (final concentration 10 μM, 400 μM or 5 mM), and 2 μL of kinase solution at 2.5-fold concentration (final concentration of LATS1 or LATS2 5 μg/mL), each prepared with assay buffer (20 mM HEPES, 0.01% Triton X-100, 2 mM DTT, pH 7.5), were mixed in the wells of a polypropylene 384-well plate (manufactured by Greiner Bio-One, #784900) and reacted at room temperature for 5 hr. Successively, 5 μL detection solution (Fluorospark (registered trade mark)Kinase/ADP Multi-Assay Kit; manufactured by FUJIFILM Wako Pure Chemical Corporation) was added, and the mixture was reacted at room temperature 30 min. Successively, 5 μL of a reaction quenching liquid (Fluorospark (registered trade mark) Kinase/ADP Multi-Assay Kit; manufactured by FUJIFILM Wako Pure Chemical Corporation) was added to discontinue the reaction. Thereafter, the ADP concentration of the reaction solution was quantified by EnSpire (manufactured by PerkinElmer) to detect the kinase reaction.

The target of the next test is T2, LATS1 (Homo sapiens, UniProt O95835).
T2 construct: purchased Carna Biosciences
T2 sequence (O95835 589-1130 limits assumed): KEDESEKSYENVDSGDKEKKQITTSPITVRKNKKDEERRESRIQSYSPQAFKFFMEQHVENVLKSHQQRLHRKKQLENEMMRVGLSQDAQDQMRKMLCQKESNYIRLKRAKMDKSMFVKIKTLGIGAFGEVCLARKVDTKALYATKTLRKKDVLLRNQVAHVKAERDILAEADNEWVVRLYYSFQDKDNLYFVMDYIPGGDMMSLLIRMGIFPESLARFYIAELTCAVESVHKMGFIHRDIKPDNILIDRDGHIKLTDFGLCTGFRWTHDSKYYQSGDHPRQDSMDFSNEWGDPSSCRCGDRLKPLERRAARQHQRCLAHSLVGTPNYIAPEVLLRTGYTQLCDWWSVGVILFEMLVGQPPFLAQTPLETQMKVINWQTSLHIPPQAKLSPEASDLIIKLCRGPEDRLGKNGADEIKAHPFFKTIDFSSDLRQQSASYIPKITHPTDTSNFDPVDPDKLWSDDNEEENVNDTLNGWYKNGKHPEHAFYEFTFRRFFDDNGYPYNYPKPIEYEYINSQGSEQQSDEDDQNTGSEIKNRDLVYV
The test is described as above. The format is biochemical. The procedure:
as §1, §2, §3

[1] abbreviates: Kinase Assay method, 8 steps 10 μM to 0.3 nM.

The text below walks through data of US20210253518A1, “KINASE INHIBITOR” (NISSAN CHEMICAL CORPORATION, priority 2018, published 2021).

Take `CC/C(=N\NC(=O)C(C)Nc1ccccc1)c1ccc(O)c(C)c1O` (stereo not drawn) [k-1:B-1]: the inhibition at 0.1 µM on LATS2 (100 nM, read-out: LARS2 inhibitory rate (%)) stood at 75%; at LATS1 (100 nM, read-out: LARS1 inhibitory rate (%)), 94%. Further, the inhibition at 1 µM amounted to 96% on LATS2 (1000 nM, read-out: LARS2 inhibitory rate (%)) and 102% at LATS1 (1000 nM, read-out: LARS1 inhibitory rate (%)). Also, the figures for the IC50 against LATS2 (setting [1]) and against LATS1 (setting [1]) were 30.8 nM and 8.88 nM, respectively.
